For this experiment, the target named is T1, sigma-1 receptor (Cavia porcellus, UniProt Q60492).
T1 construct: guinea pig brains were homogenized; from tissue; host or cells: guinea pig brain membranes
Put plainly: Sigma-1 receptor binding ([3H]-(+)-pentazocine, brain membranes). Particulars: [3H]-(+)-pentazocine 0.5 nM, guinea pig brain membranes; for inhibition at 0.01 µM: compound concentration 0.0100 μM, read-out: Percent Inhibition Percent Concentration (μM) 0.0100 SIGMA-1 receptor; for inhibition at 0.1 µM: compound concentration 0.1000 μM, read-out: Percent Inhibition Percent Concentration (μM) 0.1000 SIGMA-1 receptor. On the procedure: Brain membrane preparation and binding assays for the sigma-1 receptor were performed as described (DeHaven-Hudkins et al., Characterization of the binding of [^3H]-(+)-pentazocine to recognition sites in guinea pig brain, Eur. J. Pharmacol. 227, 371-378) with some modifications.
In brief, guinea pig brains were homogenized in 10 vols. (w/v) of Tris-HCl 50 mM, 0.32 M sucrose, pH 7.4, with a Kinematica Polytron PT 3000 at 15000 r.p.m. for 30 s. The homogenate was centrifuged at 1000 g for 10 min at 4° C. and the supernatants collected and centrifuged again at 48000 g for 15 min at 4° C. The pellet was resuspended in 10 volumes of Tris-HCl buffer (50 mM, pH 7.4), incubated at 37° C. for 30 min, and centrifuged at 48000 g for 20 min at 4° C. Following this, the pellet was resuspended in fresh Tris-HCl buffer (50 mM, pH 7.4) and stored on ice until use.
Each assay tube contained 10 μL of [^3H]-(+)-pentazocine (final concentration of 0.5 nM), 900 μL of the tissue suspension to a final assay volume of 1 mL and a final tissue concentration of approximately 30 mg tissue net weight/mL. Non-specific binding was defined by addition of a final concentration of […] haloperidol. All tubes were incubated at 37° C. for 150 min before termination of the reaction by rapid filtration over Schleicher & Schuell GF 3362 glass fibre filters [previously soaked in a solution of 0.5% polyethylenimine for at least 1 h]. Filters were then washed with four times with 4 mL of cold Tris-HCl buffer (50 mM, pH 7.4). Following addition of scintillation cocktail, the samples were allowed to equilibrate overnight. The amount of bound radioactivity was determined by liquid scintillation spectrometry using a Wallac Winspectral 1414 liquid scintillation counter. Protein concentrations were determined by the method of Lowry et al. (Protein measurement with the Folin phenol reagent, J. Biol. Chem, 193, 265).
The binding of the compounds of the present invention to sigma-1 receptors was tested as described above.

This note sets out measurements from patent US20100105680A1, “SUBSTITUTED DIMETHYLCYCLOBUTYL COMPOUNDS, THEIR PREPARATION AND USE IN MEDICAMENTS” (priority 2006, published 2010).

T1 sequence (Q60492 whole entry): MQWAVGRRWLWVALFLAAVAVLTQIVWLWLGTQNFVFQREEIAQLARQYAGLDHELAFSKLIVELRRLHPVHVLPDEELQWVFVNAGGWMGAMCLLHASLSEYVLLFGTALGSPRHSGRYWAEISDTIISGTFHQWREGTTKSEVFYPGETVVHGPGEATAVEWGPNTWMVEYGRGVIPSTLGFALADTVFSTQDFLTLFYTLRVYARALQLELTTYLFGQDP

As for `CC1(C)[C@@H](CCOCc2ccccc2)C[C@H]1CN1CCOCC1` [compound 31], the Ki came to 1.7 nM, the inhibition at 0.01 µM is 89.9% and the inhibition at 0.1 µM was 101%.
Turning to `CC1(C)[C@@H](CCO)C[C@H]1CN1CCCCC1` [compound 17], the Ki is 41.8 nM, the inhibition at 0.01 µM worked out at 45.2% and the inhibition at 0.1 µM is 61.5%.
With `CC1(C)[C@@H](CCO)C[C@H]1CN1CCC(c2ccccc2)CC1` [compound 22], affinity was put at a Ki of 1.4 nM, the inhibition at 0.01 µM was 91.9% and the inhibition at 0.1 µM turned out to be 96.8%.
On to `C[C@@H]1CN(C[C@@H]2C[C@H](CCO)C2(C)C)C[C@H](C)O1` [compound 23], for which the inhibition at 0.01 µM amounted to 27.6% and the inhibition at 0.1 µM worked out at 70.6%.
`CC1(C)[C@@H](CCOCc2ccccc2)C[C@H]1CN1CCN(c2ccccc2)CC1` [compound 36]: affinity was put at a Ki of 47 nM, the inhibition at 0.01 µM turned out to be 65.8% and the inhibition at 0.1 µM stood at 88.3%.
As to `CC1(C)[C@@H](COCc2ccccc2)C[C@H]1CN1CCCCC1` [compound 7], the affinity corresponds to a Ki of 0.79 nM, the inhibition at 0.01 µM is 94.5% and the inhibition at 0.1 µM amounted to 101%.
As for `COC(=O)C[C@H]1C[C@@H](CN2CCCCC2)C1(C)C` [compound 26], the inhibition at 0.01 µM worked out at 23.9% and the inhibition at 0.1 µM turned out to be 50%.
Regarding `CC1(C)[C@@H](CCOCc2ccccc2)C[C@H]1CN1CCCCC1` [compound 27], affinity was put at a Ki of 1.1 nM, the inhibition at 0.01 µM amounted to 96.5% and the inhibition at 0.1 µM amounted to 104%.
With `CN1CCN(C[C@@H]2C[C@H](COCc3ccccc3)C2(C)C)CC1` [compound 10], the Ki is 0.95 nM, the inhibition at 0.01 µM was 86.7% and the inhibition at 0.1 µM came out at 99.5%.
Take `CC1CCN(C[C@@H]2C[C@H](CCOCc3ccccc3)C2(C)C)CC1` [compound 28]: the Ki stood at 5 nM, the inhibition at 0.01 µM amounted to 93.5% and the inhibition at 0.1 µM is 100%.

By Ki is commonly meant the equilibrium dissociation constant of an inhibitor or competing ligand from its target. The low end stands for higher affinity, the high end for lower affinity.
